Counter-ions that a name gives are not always drawn.
Legend:
Format in all cases: physicochemical
[1] = Time and temperature stability of lyophilized TBR-760 salts in sealed glass vials (visual appearance, HPLC); conditions: for salt form degraded: sealed glass vials, HPLC
Description: Lyophilized TBR-760 salts prepared as described above were assessed for stability by visual appearance and HPLC following initial production of the salt and following incubation of the salt at 20° C., 40° C., and 60° C. for 2, 4, and 8 weeks in sealed, glass vials. Changes in visual appearance of the salt were noted by evaluating the color of the substance following each incubation condition. Purity of the salt following each incubation condition was evaluated by HPLC. The number and quantity of degradation products were determined according to the number of absorbance peaks that resulted at different retention times and the size of the peaks.

[2] = Thermogravimetric analysis (TGA) of TBR-760 salt forms
Description: Thermogravimetric analyses (TGA) were performed on all TBR-760 salt forms to evaluate thermal stability of each salt form. Studies were performed using a TGA-Q500 thermogravimetric analyzer (TA Instruments). The weight of each compound was measured while the temperature was increased at a ramp rate of 5.0° C. per minute from 25 to 400° C. […] The weight loss may be indicative of loss of adsorbed moisture, entrained solvent or volatile impurities. Decomposition of the compound appears to start at about 234° C. (sulfate salt), 245° C. (chloride salt), 252° C. (tosylate salt), and 255° C. (mesylate salt). For the acetate salt, a further ˜5% loss of weight between 110° C. and 200° C. was observed, indicating loss of volatile acetate ions over that temperature range (FIG. 8).

[3] = Solid state (thermolytic) stability of TBR-760 salt forms, open container, UPLC peak purity and appearance; conditions: for Purity, T = 2 wk / Purity, T = 4 wk / Purity, T = 3 d / Purity, Control: UPLC peak purity; for Purity, Control / Appearance, Control: stored at -20° C.
Description: (§1) Each TBR-760 salt was further evaluated for thermolytic stability over time by setting up three different exposure conditions (25° C. at 60% relative humidity (RH); 40° C. at 75% RH; or 60° C. with open and closed container systems (open dish/closed dish). Approximately 50 mg of each salt form was weighed in a nitrogen-flushed glove box for use in the studies. All samples were stored at −20° C. in a good laboratory practice (GLP) freezer both before and after exposure to the indicated conditions.
(§2) The stability of each salt form was assessed by monitoring the post-exposure drug peak purity and by evaluating the post-exposure visual appearance of the salt. The samples were removed from the exposure conditions and allowed to equilibrate to ambient conditions for 15-20 mins. An appropriate amount of each sample was weighed for analysis and dissolved in diluent (deionized water containing 0.1% TFA) to obtain a stock concentration of 1 mg/mL. The stock solution was then diluted to 0.125 mg/mL in an HPLC vial using diluent and the samples were run on a Waters Acquity UPLC system using the parameters shown in Table 4.

[4] = Photostability of TBR-760 salt forms (ICH Q1B, visible and UV light), appearance and UPLC purity; conditions: for Purity, UV-exposed / Appearance, UV-exposed: UV 200 watt hours/square meter; for Purity, UV-exposed / Purity, Light-exposed / Appearance, UV-exposed / Appearance, Light-exposed: clear sealed vial; for Purity, Control / Appearance, Control: control in sealed amber vial at -20° C.; for Purity, Dark Ctrl-UV / Appearance, Dark Ctrl-UV: dark control in UV chamber; for Purity, Dark Crtl-Light / Appearance, Dark Crtl-Light: dark control in visible light chamber; for Appearance, Dark Ctrl-UV / Appearance, Dark Crtl-Light: amber vial wrapped in aluminum foil; for degradation upon exposure to visible or UV light, in words: visible and UV light
From the text: (§3) In order to evaluate the light sensitivity and stability of TBR-760 chimeric peptide salts, all five salt forms were exposed to ultraviolet (UV) and visible light according to International Council for Harmonisation of Technical Requirements for Pharmaceuticals for Human Use (ICH) guideline Q1B for photostability testing. In brief, a Caron 6540-1 photostability chamber unit with separate UV and light chambers was used for the studies. Visible light exposure was 1.2 million lux hours and UV exposure was 200 watt hours/square meter.
Samples were placed in clear, sealed vials and stored in the appropriate chamber alongside dark controls in amber colored vials wrapped in aluminum foil. Control samples were stored in sealed amber vials at −20° C. The appearance of exposed samples was examined visually before being analyzed via UPLC.

[5] = Thermostability of alternative salt forms of lanreotide and TBR-760 (UPLC)
Description: as §1, §2
We conducted thermostability studies of lanreotide acetate substantially as described in Example 6. These experiments confirmed that lanreotide acetate is […] when exposed to increasing temperature and humidity conditions over time (FIG. 45). […] (FIG. 45). This degree of thermal and humidity instability is disfavored for a pharmaceutical agent, particularly one intended for patient self-administration at home.
To determine whether a thermostable salt form of TBR-760 could be manufactured, a salt exchange was performed as described in Example 1 to generate bromide and chloride salts of TBR-760. Lanreotide bromide and lanreotide chloride salts were also generated and assessed for thermostability to evaluate the effect of the salt form on compound stability and to compare stability of lanreotide and TBR-760 of each salt.
UPLC assays performed as described in Example 6 were further used to determine the number of degradants—and thus the number of impurities—in each sample. Results showing the purity assessment of each sample following thermostability studies are shown in FIGS. 48A-48B (lanreotide and TBR-760 acetate salts), 49A-49B (lanreotide and TBR-760 bromide salts), and 50A-50B (lanreotide and TBR-760 chloride salts).

[6] = Photostability of alternative salt forms of lanreotide and TBR-760; conditions: 1.2 million lux hours visible light or 200 watt hours/square meter UV light, versus control
From the text: as §3
Photostability of lanreotide acetate, lanreotide bromide, lanreotide chloride, TBR-760 acetate, TBR-760 bromide and TBR760 chloride was tested according to the methods of Example 7. Four samples were prepared for each salt form: one control for each of the UV and visible light exposure conditions (controls isolated from light) and one sample for exposure to each of the UV and visible light conditions. For each sample, 2-5 mg of the salt was weighed into 3 mL clear serum vials and stoppered. Vials containing control samples were wrapped in aluminum foil.
Following exposure to visible and UV light, all lanreotide and TBR-760 salts were analyzed by UPLC as described in Example 7.

[7] = 25° C. at 60% RH, open container
[8] = 40° C. at 75% RH, open container
[9] = UPLC, visible light 1.2 million lux hours

SMILES	Appearance, T = 2 wk [3, 7]	Appearance, T = 4 wk [3, 7]	Appearance, T = 3 d [3, 7]	Appearance, T = 2 wk [3, 8]	Appearance, T = 3 d [3, 8]	Appearance, T = 4 wk ([3]; 60° C., open dish)	Appearance, T = 3 d ([3]; 60° C., open dish)	Purity, T = 2 wk [3, 7]	Purity, T = 4 wk [3, 7]	Purity, T = 2 wk [3, 8]	Purity, T = 4 wk [3, 8]	Purity, T = 2 wk ([3]; 60° C., open dish)	Purity, T = 4 wk ([3]; 60° C., open dish)	Purity, Control [3]	Appearance, Control [3]	Purity, UV-exposed ([4]; UPLC)	Purity, Control ([4]; UPLC)	Purity, Dark Ctrl-UV ([4]; UPLC)	Purity, Dark Crtl-Light ([4]; UPLC)	Purity, Light-exposed [4, 9]	other results
CCCN1C[C@H](CSCC(=O)NCCCC[C@@H](NC(=O)CSC[C@@H]2C[C@@H]3c4cccc5[nH]cc(c45)C[C@H]3N(CCC)C2)C(=O)N[C@H]2CSSC[C@@H](C(=O)N[C@H](C(N)=O)[C@@H](C)O)NC(=O)[C@H](CC)NC(=O)[C@H](CCCCN)NC(=O)[C@@H](Cc3c[nH]c4ccccc34)NC(=O)[C@H](Cc3ccc(O)cc3)NC2=O)C[C@@H]2c3cccc4[nH]cc(c34)C[C@H]21 [TBR-760 acetate, Dop2-D-Lys(Dop2)-cyclo[Cys-Tyr-D-Trp-Lys-Abu-Cys]-Thr-NH2]	White	White	White	White	White	Pale Orange	White	98.16	98.09	94.52	92.37	89.7	82.32	98.35	White	96.16	98.35	98.42	98.34	92.14	change in visual appearance ([1]; 4 weeks at 60° C.): from a white powder to a yellow powder; salt form degraded ([1]; 60° C. for 4 weeks): 9.9%; salt form degraded ([1]; 60° C. for 8 weeks): more than 16%; TGA further loss of weight ([2]; between 110° C. and 200° C.): approximately 5%; stability compared with the other salt forms ([3]; 40° C. at 75% RH and 60° C., 2 and 4 weeks, listed as acetate salt): least stable of the salts tested; Purity, T = 3 d [3, 7]: 98.52; Purity, T = 3 d [3, 8]: 98.4; Purity, T = 3 d ([3]; 60° C., open dish): 96.66; additional degradants in chromatogram versus control ([3]; two weeks at 60° C., open dish, UPLC, listed as acetate salt): 17; Appearance, UV-exposed ([4]; listed as TBR-760 acetate salt): white to a pale yellow-brown color; Appearance, Control [4]: white; Appearance, Dark Ctrl-UV [4]: white; Appearance, Dark Crtl-Light [4]: white; degradation under dark conditions ([4]; dark controls, UPLC): does not degrade; degradation upon exposure to visible or UV light, in words ([4]; UPLC): degraded; Appearance, Light-exposed ([4]; visible light 1.2 million lux hours, listed as TBR-760 acetate salt): white to yellow-brown; compound degraded ([5]; 4 weeks at 60° C. and ambient humidity): greater than 5%; thermostability in words ([5]; increasing temperature and humidity (25° C./60% RH, 40° C./75% RH, 60° C.) up to 4 weeks): does not maintain stability; visible appearance after exposure to visible and UV light [6]: from a white salt (control) to a yellow/brown salt
CCCN1C[C@H](CSCC(=O)NCCCC[C@@H](NC(=O)CSC[C@@H]2C[C@@H]3c4cccc5[nH]cc(c45)C[C@H]3N(CCC)C2)C(=O)N[C@H]2CSSC[C@@H](C(=O)N[C@H](C(N)=O)[C@@H](C)O)NC(=O)[C@H](CC)NC(=O)[C@H](CCCCN)NC(=O)[C@@H](Cc3c[nH]c4ccccc34)NC(=O)[C@H](Cc3ccc(O)cc3)NC2=O)C[C@@H]2c3cccc4[nH]cc(c34)C[C@H]21 [TBR-760 tosylate, Dop2-D-Lys(Dop2)-cyclo[Cys-Tyr-D-Trp-Lys-Abu-Cys]-Thr-NH2]	White	White	White	White	White	White	White	98.01	97.39	97.57	96.93	96.86	96.52	98.39	White	95.67	98.39	98.27	98.27	96.3	TGA start of decomposition ([2]; ramp 5.0° C. per minute from 25 to 400° C., listed as tosylate salt): ~252 °C; Appearance, T = 4 wk [3, 8]: White; Appearance, T = 2 wk ([3]; 60° C., open dish): White; Appearance, UV-exposed ([4]; listed as Tosylate): off-white; Appearance, UV-exposed ([4]; listed as tosylate): white to off-white; Appearance, Control [4]: white; Appearance, Dark Ctrl-UV [4]: white; Appearance, Dark Crtl-Light [4]: white; degradation upon exposure to visible or UV light, in words ([4]; UPLC): more resistant to degradation than TBR-760 acetate; stability following light exposure, in words ([4]; visible light 1.2 million lux hours): significantly more stable than the TBR-760 acetate salt; Appearance, Light-exposed ([4]; visible light 1.2 million lux hours, listed as Tosylate): off-white; Appearance, Light-exposed ([4]; visible light 1.2 million lux hours, listed as tosylate): white to off-white

Reference: patent US20210338782A1, “STORAGE STABLE SOMATOSTATIN-DOPAMINE CHIMERIC COMPOUNDS AND SALT FORMS THEREOF” (Cydan II, Inc., priority 2019, published 2021)
